Series [1] has as its system ANGPTL3 protein. As to the kind of experiment: Example 3: serum ANGPTL3 protein by ELISA in mice. It counts as in vivo, C57bl/6 mice. Conditions: 1.0 mg/kg single subcutaneous dose on day 1, serum, female C57bl/6 mice. Here is the method:
To assess the in vivo activity of ANGPTL3 RNAi agents that are designed to target positions 921 and 922 on the ANGPTL3 gene, six- to eight-week-old female C57bl/6 mice were used. Pre-dose serum samples were taken at day −1 after a four hour fast. At day 1, each mouse was given a single subcutaneous administration of 200 μl containing either 1 mg/kg (mpk) of an ANGPTL3 RNAi agent in D5W (dextrose in 5% water), or control (D5W) with no RNAi agent, according to the dosing groups recited in Table 12.
Each of the RNAi agents included a modified sequence and an N-acetyl-galactosamine-containing targeting ligand conjugated to the 5′ terminal end of the sense strand. (See Tables 3, 4, and 5 for modified sequences and targeting ligand structures). The injections were performed between the skin and muscle (i.e. subcutaneous injections) into the loose skin over the neck and shoulder area. Three (3) mice in each group were tested (n=3). […] Mice were fasted for four hours prior to each collection. ANGPTL3 protein levels in serum were measured by ELISA assay (R&D Systems), according to the manufacturer's recommendations. Triglycerides, high-density lipoprotein (HDL), and total cholesterol in serum were measured on a Cobas® Integra 400 (Roche Diagnostics), according to the manufacturer's recommendations.
(§1) The ANGPTL3 protein levels, triglyceride levels, HDL levels, and total cholesterol levels for each animal were normalized. For normalization, the level of ANGPTL3 protein, triglyceride, HDL, and total cholesterol, respectively, for each animal at a time point, was divided by the pre-treatment level of expression in that animal (in this case at day −1) to determine the ratio of expression “normalized to pre-treatment.” Expression at a specific time point was then normalized to the D5W control group by dividing the “normalized to pre-treatment” ratio for an individual animal by the mean “normalized to pretreatment” ratio of all mice in the D5W control group.
On the technique in general: An ELISA detects its analyte on a solid surface through an enzyme-linked reagent.

Series [2] deals with ANGPTL3 gene. As to the kind of experiment: Example 7: serum HDL in mice. The class given is in vivo. More on the design: key: ratio: (level/pre-treatment day -1 level) ÷ mean of D5W control group. Conditions: 0.5 mg/kg single SC injection day 1, female C57bl/6 mice, n=3, ratio to D5W control. The protocol: (§2) To further assess the in vivo activity of additional ANGPTL3 RNAi agents that are designed to target position 304 on the ANGPTL3 gene, six- to eight-week-old female C57bl/6 mice were used. Pre-dose serum samples were taken at day −1 after a four hour fast. At day 1, each mouse was given a single subcutaneous administration of 200 μl containing 0.5 mg/kg (mpk) of an ANGPTL3 RNAi agent in D5W (dextrose in 5% water), or control (D5W) with no RNAi agent, according to the dosing groups recited in Table 31.
(§3) Each of the RNAi agents included a modified sequence and an N-acetyl-galactosamine-containing targeting ligand conjugated to the 5′ terminal end of the sense strand. (See Tables 3, 4, and 5 for modified sequences and targeting ligand structures). The injections were performed between the skin and muscle (i.e. subcutaneous injections) into the loose skin over the neck and shoulder area. Three (3) mice in each group were tested (n=3). Serum was collected on days 8, 15, 22, and 29. Mice were fasted for four hours prior to each collection. ANGPTL3 protein levels in serum were measured by ELISA assay (R&D Systems), according to the manufacturer's recommendations. Triglycerides, total cholesterol, high-density lipoprotein (HDL), and low-density lipoprotein (LDL) in serum were measured on a Cobas® Integra 400 (Roche Diagnostics), according to the manufacturer's recommendations.
(§4) The ANGPTL3 protein levels, triglyceride levels, total cholesterol levels, HDL levels, and LDL levels for each animal were normalized. For normalization, the level of ANGPTL3 protein, triglyceride, HDL, and total cholesterol, respectively, for each animal at a time point, was divided by the pre-treatment level of expression in that animal (in this case at day −1) to determine the ratio of expression “normalized to pre-treatment.” Expression at a specific time point was then normalized to the D5W control group by dividing the “normalized to pre-treatment” ratio for an individual animal by the mean “normalized to pretreatment” ratio of all mice in the D5W control group.

Series [3] deals with ANGPTL3 protein. As to the kind of experiment: Example 4: serum ANGPTL3 protein by ELISA in mice. It counts as in vivo, C57bl/6 mice. Conditions: for Avg ANGPTL3 (Average ANGPTL3 Protein Normalized to Pre-Treatment and Control): 1.0 mg/kg single subcutaneous dose on day 1, serum, female C57bl/6 mice. The protocol:
(§5) To assess the in vivo activity of ANGPTL3 RNAi agents that are designed to target additional positions on the ANGPTL3 gene, six- to eight-week-old female C57bl/6 mice were used. Pre-dose serum samples were taken at day −1 after a four hour fast. At day 1, each mouse was given a single subcutaneous administration of 200 μl containing either 1 mg/kg (mpk) or 0.5 mg/kg (mpk) of an ANGPTL3 RNAi agent in D5W (dextrose in 5% water), or control (D5W) with no RNAi agent, according to the dosing groups recited in Table 17.
as §3, with “22, 29,” for “22,”, “day 43 (Groups 1-3, 9, and 11-13 only).” for “29.”, “Triglycerides,” for “Triglycerides, total cholesterol,”, “total cholesterol” for “low-density lipoprotein (LDL)”
as §1

Series [4] relates to ANGPTL3 gene. As to the kind of experiment: Example 4: serum total cholesterol in mice. The class given is in vivo, C57bl/6 mice. Here is the method:
as §5
as §3, with “22, 29,” for “22,”, “day 43 (Groups 1-3, 9, and 11-13 only).” for “29.”, “Triglycerides,” for “Triglycerides, total cholesterol,”, “total cholesterol” for “low-density lipoprotein (LDL)”
as §1

The test system of series [5] is ANGPTL3 gene. The series is described as follows: Example 7: serum triglycerides in mice. It counts as in vivo, C57bl/6 mice. More on the design: key: ratio: (level/pre-treatment day -1 level) ÷ mean of D5W control group. The protocol:
as §2, §3, §4

In the oligonucleotide strings, read from the 5' end, every base follows the letter of its sugar. An asterisk marks phosphorothioate; unmarked linkages are phosphodiester. Other units and linkages are bracketed, terminal groups are in braces. A string of capitals states the bases alone. {NAG37} = tridentate N-acetyl-galactosamine targeting ligand, structure (NAG37)s; [invAb] = inverted abasic unit; m = 2'-O-methyl; f = 2'-fluoro

The values that follow come from US12729377B2, “RNAi agents and compositions for inhibiting expression of angiopoietin-like 3 (ANGPTL3), and methods of use” (Arrowhead Pharmaceuticals, Inc., priority 2017, dated 2026).

In the case of “AD05307: RNAi agent duplex: antisense AM07001-AS, sense AM07000-SS (chain 1 mU*fU*mU*fGmAfAmUfUmAfAmUfGmUfCmCfAmUfGmGmG*mC; chain 2 {NAG37}*[invAb]*mGmCmCmCmAmUmGmGfAfCfAmUmUmAmAmUmUmCmAmAmA*[invAb])”, the “Avg ANGPTL3 (Average ANGPTL3 Protein Normalized to Pre-Treatment and Control)” value in the series on ANGPTL3 protein [1] (Day 8) was found to be 0.323; in the series on ANGPTL3 protein [1] (Day 15), 0.311; with ANGPTL3 protein [1] (Day 22), 0.346; in the series with ANGPTL3 protein [1] (Day 29) it was 0.486.

Take “AD05488: RNAi agent duplex: antisense AM07235-AS, sense AM07234-SS (antisense mU*fA*mC*fUmGfAmUfCmAfAmAfUmAfUmGfUmUfGmAfG*mC; sense {NAG37}*[invAb]*mGmCmUmCmAmAmCmAfUfAfUmUmUmGmAmUmCmAmGmUmA*[invAb])”: the “Avg HDL, normalized to pre-treatment and control” value in the series with ANGPTL3 gene [2] (Day 8) is reported as 0.783; in the series on ANGPTL3 gene [2] (Day 15), 0.793; in the series with ANGPTL3 gene [2] (Day 22), 0.780; in the series on ANGPTL3 gene [2] (Day 29), 0.886. In addition, the “Avg ANGPTL3 (Average ANGPTL3 Protein Normalized to Pre-Treatment and Control)” value with ANGPTL3 protein [3] (Day 8) turned out to be 0.090; with ANGPTL3 protein [3] (Day 15) it was 0.070; in the series with ANGPTL3 protein [3] (Day 22) it was 0.092; with ANGPTL3 protein [3] (Day 29) it was 0.124; in the series with ANGPTL3 protein [3] (Day 43), 0.254. The “ANGPTL3 protein normalized to pre-treatment and control” value came out at 0.070 with ANGPTL3 protein [3] (day 15, single 1 mg/kg subcutaneous, C57bl/6 mice) and 0.092 in the series with ANGPTL3 protein [3] (day 22, single 1 mg/kg subcutaneous, C57bl/6 mice). The “knockdown of ANGPTL3 protein” value in the series with ANGPTL3 protein [3] (days 15 and 22, single 1 mg/kg subcutaneous, C57bl/6 mice) is “greater than 90%”. Also, the “Avg Total Chol, normalized to pre-treatment and control” value in the series on ANGPTL3 gene [4] (Day 8, 1.0 mg/kg single SC injection on day 1, n=3) was 0.827; in the series on ANGPTL3 gene [4] (Day 15, 1.0 mg/kg single SC injection on day 1, n=3), 0.667; with ANGPTL3 gene [4] (Day 22, 1.0 mg/kg single SC injection on day 1, n=3), 0.759; in the series with ANGPTL3 gene [4] (Day 29, 1.0 mg/kg single SC injection on day 1, n=3), 0.683; with ANGPTL3 gene [4] (Day 43, 1.0 mg/kg single SC injection on day 1, n=3), 0.837. Also, the “Avg TG, normalized to pre-treatment and control” value turned out to be 0.856 in the series with ANGPTL3 gene [5] (Day 8, 0.5 mg/kg single SC injection on day 1, n=3); 0.947 in the series on ANGPTL3 gene [5] (Day 15, 0.5 mg/kg single SC injection on day 1, n=3); 0.922 with ANGPTL3 gene [5] (Day 22, 0.5 mg/kg single SC injection on day 1, n=3); 0.877 in the series with ANGPTL3 gene [5] (Day 29, 0.5 mg/kg single SC injection on day 1, n=3).
